From PubChem BioAssay AID330 (DTP/NCI, 2004)
Where “and” joins values, the source holds several entries; their conditions need not be identical. Identical values can stand only once. Toxic doses and inconclusive results are not listed.

Tested on: P388 leukemia ip, CD2F1 mice, survival T/C
Test: NCI In Vivo Anticancer Drug Screen. Data for tumor model P388 Leukemia (intraperitoneal) in CD2F1 (CDF1) mice
Details: endpoint: median survival time, higher = longer survival
Method in brief: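 Mice carrying the transplanted tumor received test compound or vehicle. Survival was recorded in each group, and the value is the treated-group measurement divided by that of the vehicle-treated control group.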

[1] = dose: 50.0 mg/kg/injection, schedule: Q01DX005 (ip), vehicle: Klucel (hydroxypropylcellulose) (HPC)
[2] = dose: 100.0 mg/kg/injection, schedule: Q01DX005 (ip), vehicle: Klucel (hydroxypropylcellulose) (HPC)
[3] = dose: 200.0 mg/kg/injection, schedule: Q01DX005 (ip), vehicle: Klucel (hydroxypropylcellulose) (HPC)
[4] = dose: 12.5 mg/kg/injection, schedule: Q01DX009 (ip), vehicle: Klucel (hydroxypropylcellulose) (HPC)
[5] = dose: 25.0 mg/kg/injection, schedule: Q01DX009 (ip), vehicle: Klucel (hydroxypropylcellulose) (HPC)
[6] = dose: 50.0 mg/kg/injection, schedule: Q01DX009 (ip), vehicle: Klucel (hydroxypropylcellulose) (HPC)
[7] = dose: 100.0 mg/kg/injection, schedule: Q01DX009 (ip), vehicle: Klucel (hydroxypropylcellulose) (HPC)
[8] = dose: 50.0 mg/kg/injection, schedule: Q01DX005 (ip), vehicle: saline with Tween-80
[9] = dose: 100.0 mg/kg/injection, schedule: Q01DX005 (ip), vehicle: saline with Tween-80
[10] = dose: 200.0 mg/kg/injection, schedule: Q01DX009 (ip), vehicle: Klucel (hydroxypropylcellulose) (HPC)
[11] = dose: 50.0 mg/kg/injection, schedule: Q04DX003 (ip), vehicle: saline with Tween-80
[12] = dose: 6.25 mg/kg/injection, schedule: Q01DX009 (ip), vehicle: saline with Tween-80
[13] = dose: 50.0 mg/kg/injection, schedule: Q01DX009 (ip), vehicle: saline with Tween-80
[14] = dose: 100.0 mg/kg/injection, schedule: Q01DX009 (ip), vehicle: saline with Tween-80
[15] = dose: 200.0 mg/kg/injection, schedule: Q01DX009 (ip), vehicle: saline with Tween-80
[16] = dose: 60.0 mg/kg/injection, schedule: Q01DX005 (ip), vehicle: saline with Tween-80

c1ccc(-c2cnnc3c4ccccc4nn23)cc1
T/C [1]: 97 % of control
T/C [2]: 96 % of control
T/C [3]: 91 % of control

S=C(Nc1ccc(Cl)c(Cl)c1)SCc1ccc2c(c1)OCO2
T/C [4]: 116 % of control
T/C [5]: 120 % of control
T/C [6]: 121 % of control
T/C [7]: 112 % of control and 97 % of control

COC(=O)C1=C(C(=O)OC)C2CC3C4CC=C5CC(OC(C)=O)CCC5(C)C4CCC3(C)C2=C(OC(C)=O)C1 (stereo not given)
T/C [8]: 90 % of control
T/C [9]: 87 % of control

c1c2noc1CCCCCCCCC2
T/C [1]: 104 % of control
T/C [2]: 110 % of control
T/C [3]: 118 % of control

CC1OC1C(=O)C1(O)C(C)C(O)C23OC2(C(O)c2c(O)cccc2C3=O)C1O (stereo not given)
T/C (dose: 1.0 mg/kg/injection, schedule: Q01DX009 (ip), vehicle: Klucel (hydroxypropylcellulose) (HPC)): 104 % of control and 118 % of control
T/C (dose: 2.0 mg/kg/injection, schedule: Q01DX009 (ip), vehicle: Klucel (hydroxypropylcellulose) (HPC)): 154 % of control
T/C (dose: 4.0 mg/kg/injection, schedule: Q01DX009 (ip), vehicle: Klucel (hydroxypropylcellulose) (HPC)): 121 % of control

Clc1ccc(C[P+](c2ccccc2)(c2ccccc2)c2ccccc2)c(Cl)c1
T/C (dose: 1.25 mg/kg/injection, schedule: Q01DX009 (ip), vehicle: saline sonified): 109 % of control
T/C (dose: 2.5 mg/kg/injection, schedule: Q01DX009 (ip), vehicle: saline sonified): 109 % of control
T/C (dose: 5.0 mg/kg/injection, schedule: Q01DX009 (ip), vehicle: saline sonified): 118 % of control

CC(C)SC=O
T/C [6]: 100 % of control
T/C [7]: 107 % of control
T/C [10]: 106 % of control

CCCCCCCCCc1cc(=O)n(-c2ccc(C(=O)OCC)cc2)n1C
T/C [6]: 104 % of control
T/C [7]: 90 % of control
T/C [10]: 93 % of control

COc1ccc(/C=N/Nc2ccc([N+](=O)[O-])cc2[N+](=O)[O-])cc1
T/C [11]: 93 % of control
T/C (dose: 100.0 mg/kg/injection, schedule: Q04DX003 (ip), vehicle: saline with Tween-80): 94 % of control
T/C (dose: 200.0 mg/kg/injection, schedule: Q04DX003 (ip), vehicle: saline with Tween-80): 88 % of control
T/C (dose: 400.0 mg/kg/injection, schedule: Q04DX003 (ip), vehicle: saline with Tween-80): 91 % of control

C=C1C(=O)C23[C@H](O)C1CC[C@H]2[C@]12COC3(O)[C@@H](O)[C@@H]1C(C)(C)CC[C@@H]2O
T/C [12]: 113 % of control
T/C (dose: 8.0 mg/kg/injection, schedule: Q01DX009 (ip), vehicle: saline with Tween-80): 106 % of control
T/C (dose: 9.0 mg/kg/injection, schedule: Q01DX009 (ip), vehicle: saline with Tween-80): 117 % of control
T/C (dose: 12.5 mg/kg/injection, schedule: Q01DX009 (ip), vehicle: saline with Tween-80): 104 % of control
T/C (dose: 25.0 mg/kg/injection, schedule: Q01DX009 (ip), vehicle: saline with Tween-80): 104 % of control
T/C (dose: 27.0 mg/kg/injection, schedule: Q01DX009 (ip), vehicle: saline with Tween-80): 121 % of control

O=C(O)c1oc2ccccc2c1/C=C/c1ccccc1
T/C [13]: 100 % of control
T/C [14]: 97 % of control
T/C [15]: 100 % of control

Cc1ccc(C(=O)CSC2=NCCN2)cc1Cl
T/C [16]: 106 % of control
T/C (dose: 120.0 mg/kg/injection, schedule: Q01DX005 (ip), vehicle: saline with Tween-80): 100 % of control
T/C (dose: 240.0 mg/kg/injection, schedule: Q01DX005 (ip), vehicle: saline with Tween-80): 97 % of control

Cc1ccc(N2OC3(CCCCC3)n3c(=O)c4ccccc4c(=O)n3C2c2ccccc2)cc1 (stereo not given)
T/C [6]: 105 % of control
T/C [7]: 106 % of control
T/C [10]: 99 % of control

CCCCOP(=O)(O)OCCCC.[U]
T/C [12]: 97 % of control

C=CC(O)CN1CC1 (stereo not given)
T/C (dose: 0.75 mg/kg/injection, schedule: Q04DX003 (ip), vehicle: saline): 122 % of control
T/C (dose: 1.25 mg/kg/injection, schedule: Q01DX009 (ip), vehicle: saline): 158 % of control
T/C (dose: 2.5 mg/kg/injection, schedule: Q01DX009 (ip), vehicle: saline): 113 % of control and 212 % of control
T/C (dose: 3.0 mg/kg/injection, schedule: Q04DX003 (ip), vehicle: saline): 181 % of control
T/C (dose: 6.0 mg/kg/injection, schedule: Q04DX003 (ip), vehicle: saline): 154 % of control
T/C (dose: 10.0 mg/kg/injection, schedule: Q04DX003 (ip), vehicle: saline): 154 % of control

COc1cc2c(cc1O)C(=O)CCC(C(=O)O)=C2
T/C [14]: 92 % of control

Cc1nnc2cccc(Cl)n12
T/C (dose: 50.0 mg/kg/injection, schedule: Q01DX001 (ip), vehicle: Klucel (hydroxypropylcellulose) (HPC)): 106 % of control
T/C (dose: 100.0 mg/kg/injection, schedule: Q01DX001 (ip), vehicle: Klucel (hydroxypropylcellulose) (HPC)): 106 % of control
T/C (dose: 200.0 mg/kg/injection, schedule: Q01DX001 (ip), vehicle: Klucel (hydroxypropylcellulose) (HPC)): 99 % of control

NNC(=O)C1CCN1C(c1ccccc1)c1ccccc1 (stereo not given)
T/C [4]: 106 % of control
T/C [5]: 102 % of control
T/C [6]: 102 % of control
T/C [7]: 95 % of control

O=C(NCCCCOc1ccccc1[N+](=O)[O-])OCc1ccccc1
T/C [8]: 101 % of control
T/C [9]: 97 % of control
T/C (dose: 200.0 mg/kg/injection, schedule: Q01DX005 (ip), vehicle: saline with Tween-80): 101 % of control

N#CC1=C2CCCCC2(O)NC1=O (stereo not given)
T/C (dose: 6.25 mg/kg/injection, schedule: Q01DX005 (ip), vehicle: Klucel (hydroxypropylcellulose) (HPC)): 108 % of control
T/C (dose: 12.5 mg/kg/injection, schedule: Q01DX005 (ip), vehicle: Klucel (hydroxypropylcellulose) (HPC)): 115 % of control

O=C(O)CNC(=O)C(CN1CC(=O)OC1c1ccc([N+](=O)[O-])cc1)N1C(=O)c2ccccc2C1=O (stereo not given)
T/C (dose: 25.0 mg/kg/injection, schedule: Q04DX003 (ip), vehicle: saline with Tween-80): 100 % of control
T/C [11]: 100 % of control

CC(=O)Nc1nnc(SSc2nnc(NC(C)=O)s2)s1
T/C [6]: 90 % of control
T/C [7]: 102 % of control
T/C [10]: 94 % of control

CCO/C=C1/N=C(c2ccc(Cl)cc2)OC1=O
T/C [16]: 121 % of control

COc1ccc(N=C2C(=Nc3ccc(OC)cc3)N(c3ccc(OC)cc3)C(=S)N2C(=O)c2ccc(Cl)cc2)cc1
T/C (dose: 50.0 mg/kg/injection, schedule: Q01DX005 (ip), vehicle: Klucel + Tween-80): 90 % of control
T/C (dose: 100.0 mg/kg/injection, schedule: Q01DX005 (ip), vehicle: Klucel + Tween-80): 93 % of control
T/C (dose: 200.0 mg/kg/injection, schedule: Q01DX005 (ip), vehicle: Klucel + Tween-80): 90 % of control

CNC(=O)OCc1c(COC(=O)NC)c(-c2ccc(Cl)cc2)n2c1CCC2
T/C (dose: 6.25 mg/kg/injection, schedule: Q01DX009 (ip), vehicle: Klucel (hydroxypropylcellulose) (HPC)): 150 % of control
T/C [4]: 94 % of control
T/C [5]: 88 % of control
T/C [6]: 104 % of control

CCC[CH2][Sn]1([CH2]CCC)[O]C2C(OC)OC3COC(c4ccccc4)OC3C2[O]1 (stereo not given)
T/C (dose: 12.5 mg/kg/injection, schedule: Q04DX003 (ip), vehicle: saline): 105 % of control
T/C (dose: 25.0 mg/kg/injection, schedule: Q04DX003 (ip), vehicle: saline): 110 % of control
T/C (dose: 50.0 mg/kg/injection, schedule: Q04DX003 (ip), vehicle: saline): 112 % of control

CN(C)C(=S)c1cccc2ccccc12
T/C [13]: 86 % of control
T/C [14]: 96 % of control
T/C [15]: 114 % of control

COc1c2c(c3c(c1CCC(=O)O)OC(C)(C)C=C3)OC(C)(C)C=C2
T/C [1]: 102 % of control
T/C [2]: 100 % of control
T/C [3]: 102 % of control

COC(=O)/C(=N\NS(=O)(=O)c1ccc(C)cc1)c1ccccc1
T/C [4]: 99 % of control
T/C [5]: 105 % of control
T/C [6]: 99 % of control
T/C [7]: 98 % of control
T/C [10]: 90 % of control
